Laboratory results: PMC8402032, “Unsymmetric Cisplatin-Based Pt(IV) Conjugates Containing a PARP-1 Inhibitor Pharmacophore Tested on Malignant Pleural Mesothelioma Cell Lines” (Molecules, 2021)

How the values were obtained:
[1] = Lipophilicity by RP-HPLC (log k′); type: physicochemical; conditions: RP-HPLC C18, 15 mM formic acid/CH3OH 30/70
Text: Since it has been reported that Pt(IV) complexes enter cells by passive diffusion only, with a few exceptions, the evaluation of lipophilicity is key because it is related to the ability of a molecule to passively cross cellular membranes. RP-HPLC techniques are often used to measure the lipophilicity of a compound, since the retention is due to partitioning between the C18 chains of the stationary phase (representing the cellular membrane) and the aqueous eluent (representing the water inside and outside cells). For this purpose, the retention times (tR) of the complexes were transformed as log k′, where k′ = (tR − t0)/t0) and t0 is the column dead-time (Table 1).
RP-HPLC was used to evaluate the capacity factors of the compounds as reported elsewhere. Briefly, a chromatogram for each Pt complex (0.5 mM) was run on a C18 column Phenosphere-NEXT (5-μm, 250 × 4.6 mm ID) with an eluant composition of 15 mM formic acid/CH3OH 30/70 and a flow rate of 0.5 mL min^−1. The corresponding retention time tR was used to calculate log k′, where k′ = (tR − t0)/t0. The dead time of the column t0 was the tR of KCl, added as unretained internal reference.

[2] = test system: MM98 (sarcomatoid) malignant pleural mesothelioma cells; assay: Cell viability assay (Trypan blue dye exclusion), MM98; type: cell-based, human; conditions: 72 h treatment
Description: (§1) Complexes 6–9 were tested on a panel of human MPM cell lines together with CDDP and SAA1, added for comparison (Table 1). The half-maximal inhibitory concentration, IC50, was determined on MSTO-211H (biphasic phenotype), REN (epithelioid), BR95 (epithelioid), and MM98 (sarcomatoid) cancer cell lines to identify the most promising Pt(IV) conjugate to be further investigated. To determine the number of viable cells, the use of the dye exclusion assay was preferred to the colorimetric assay because of the heterogeneity in the energy metabolism between the different MPM cell lines. This may justify minor differences with respect to the previously published IC50 for CDDP [40].
Cells were seeded at a density of 10 × 10^4 cells per well in 6-well plates in RPMI medium supplemented with 10% fetal bovine serum (FBS), 100 μg mL^−1 streptomycin, and 10 μg mL^−1 penicillin and incubated overnight at 37 °C in a humidified environment containing 5% CO2 to allow adherence. Cisplatin was dissolved in 0.9% w/v aqueous NaCl brought to pH = 3 with HCl (final stock concentration 1 mM). The Pt(IV) complexes were dissolved in DMSO (final stock concentration 5 mM); the resulting solutions were microfiltered (0.45 μm) and their Pt content was checked by ICP-MS (see Section 3.5.2). These mother solutions were diluted in complete medium to the required concentration range.
(§2) Following 72 h of treatment with the diluent of the compound (Ctrl) or different doses of the Pt compounds, cells were trypsinized and stained with Trypan blue. The number of cells considered viable (unstained cells) was counted in a Bürker haemocytometer within 5 min after staining.

[3] = molecular target: T1, PARP-1 (Homo sapiens, UniProt P09874); assay: Cellular thermal shift assay (CETSA) for in-cell PARP-1 target engagement; type: binding; conditions: MSTO-211H intact cells, 50 µM, 15 min; 52, 56 and 60 °C
T1 construct: endogenous in cells; host or cells: MSTO-211H cells
Text: In order to confirm that PARP-1 is the direct target of 6, the cellular thermal shift assay (CETSA®) was employed. This assay is based on the biophysical principle of ligand-induced thermal stabilization of target proteins. Indeed, ligand-bound proteins are stabilized by their interacting partner and melt at a higher temperature with respect to the native protein. The test involves the drug treatment of the cellular system of choice, the heating of the cell to different temperatures, and the quantification of the presence of target protein in the soluble fraction by Western blotting to validate and quantify target engagement of drugs in cells and tissues.
Multiple aliquots of MSTO-211H intact cells, previously incubated with the diluent, 3-ABA or 6, were heated to different temperatures ranging from 48 °C to 60 °C. After lysis, the soluble fractions were analyzed by SDS-PAGE followed by Western blot. In Figure 6, the stabilities of 6 and 3-ABA, at 52, 56, and 60 °C, are compared.
For the intact cell experiments, MSTO-211H cells were treated with the diluent of the compound (Ctrl) or 6 (50 µM) in complete medium for 15 min at 37 °C, in a humidified environment containing 5% CO2. […] The supernatants were then analyzed by SDS-PAGE followed by Western blot analysis as previously described. […]

[4] = test system: human MPM cell lines; assay: Antiproliferative activity on the panel of human MPM cell lines (summary); type: cell-based
Description: as §1
Cells were seeded at a density of 10 × 10^4 cells per well in 6-well plates in RPMI medium supplemented with 10% fetal bovine serum (FBS), 100 μg mL^−1 streptomycin, and 10 μg mL^−1 penicillin and incubated overnight at 37 °C in a humidified environment containing 5% CO2 to allow adherence. Cisplatin was dissolved in 0.9% w/v aqueous NaCl brought to pH = 3 with HCl (final stock concentration 1 mM). […]
as §2

T1 sequence (P09874 whole entry): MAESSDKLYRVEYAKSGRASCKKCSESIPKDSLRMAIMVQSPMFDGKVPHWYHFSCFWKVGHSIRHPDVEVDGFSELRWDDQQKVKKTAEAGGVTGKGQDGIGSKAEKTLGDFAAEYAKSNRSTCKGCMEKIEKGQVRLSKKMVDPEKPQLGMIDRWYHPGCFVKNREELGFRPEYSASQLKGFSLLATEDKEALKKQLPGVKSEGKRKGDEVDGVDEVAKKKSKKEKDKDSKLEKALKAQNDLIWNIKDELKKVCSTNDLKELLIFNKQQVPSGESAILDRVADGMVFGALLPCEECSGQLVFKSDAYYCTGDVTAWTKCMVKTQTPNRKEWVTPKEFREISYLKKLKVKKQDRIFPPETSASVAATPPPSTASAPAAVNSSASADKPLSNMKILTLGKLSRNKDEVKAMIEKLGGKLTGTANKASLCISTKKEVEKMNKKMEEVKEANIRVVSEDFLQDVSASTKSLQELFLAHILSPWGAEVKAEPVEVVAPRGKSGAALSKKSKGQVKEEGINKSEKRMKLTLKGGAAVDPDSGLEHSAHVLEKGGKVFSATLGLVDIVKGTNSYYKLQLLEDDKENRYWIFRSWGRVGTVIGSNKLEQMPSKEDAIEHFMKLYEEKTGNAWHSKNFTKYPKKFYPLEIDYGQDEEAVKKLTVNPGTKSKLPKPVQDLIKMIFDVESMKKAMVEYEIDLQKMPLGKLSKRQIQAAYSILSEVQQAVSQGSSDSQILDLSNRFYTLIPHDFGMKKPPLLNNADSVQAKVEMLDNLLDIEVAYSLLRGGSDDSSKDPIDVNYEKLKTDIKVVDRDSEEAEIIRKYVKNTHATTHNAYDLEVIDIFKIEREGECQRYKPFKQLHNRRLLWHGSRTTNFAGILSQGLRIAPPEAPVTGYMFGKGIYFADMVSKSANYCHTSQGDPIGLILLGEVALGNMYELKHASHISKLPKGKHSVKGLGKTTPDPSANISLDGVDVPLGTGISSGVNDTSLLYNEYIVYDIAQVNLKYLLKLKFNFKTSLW

Log k′ [1]: 4.22 | IC50 ([2]; mean ± sd): 980 ± 30 nM
SMILES: CC(=O)[O][Pt]([NH2])([NH2])([Cl])([Cl])[O]C(=O)CCNC(=O)c1cccc(NC(=O)OCC2c3ccccc3-c3ccccc32)c1 [Compound 6, (OC-6-44)-Acetato[3-(3-(fmoc-amino)-benzamido)-propanoato]-diammine-dichlorido-platinum(IV)]
ratio IC50 (cisplatin)/IC50 (Pt(IV) complex), MM98 [2]: 1.8 | thermal stability of PARP-1 protein levels [3]: more stable to heating as compared with the control and 3-ABA groups | ratio between the IC50 of CDDP and the IC50 of the Pt(IV) complex, all cell lines [4]: around 2
